From patent US20210244712A1, “METHODS FOR TREATING PATIENTS WITH CANCER HAVING DEFECTS IN CYCLIN D REGULATION” (NysnoBio Ireland DAC, priority 2018, published 2021)
“Also recorded” adds a separate entry of the source.

Assays:
Cyclin D = experiment: Western blot of cellular biomarker cyclin D; format: cell-based
Experimental: Various cancer cells lines were treated with Compound 42 or palbociclib (control) to measure the expression of cyclin D, cyclin E, pRb, and Rb.
Day 1: 6 well plate was seeded with 3×10^5 cells/well with a final volume of 3 mL and incubated for 24 hours at 37° C.
Day 2: The media was removed and Compound 42 (see below for dose) or palbociclib (1 μM) as positive control were added to the wells the desired concentration in cell culture media, giving a final volume of 3 mL per well. The plate was incubated for 24 hours at 37° C. (or desired period).
Day 3: The media was removed from wells and washed ×3 with PBS. 500 μl of trypsin was added to the wells and incubate until cells detach. 500 μl media was added to neutralise trypsin, transferred to 2 ml Eppendorfs, and centrifuged (1500 RPM for 5 minutes). While spinning, the wells were washed with 1 mL PBS to collect any remaining cells. This wash was used to centrifuged cell pellet. After the first spin, the supernatant was discarded and the pellet was washed with PBS collected from the previous step. The centrifugation step was repeated and the supernatant was discarded and the pellet wash again with fresh PBS. The centrifugation and wash with PBS was repeated one more time. RIPA cell lysate buffer was prepared and Protease Inhibitor Cocktail was included. The supernatant was discarded and […] RIPA cell lysate buffer was added to the pellet. The protein concentration was determined using the BCA assay kit.
Day 4: Western blot analysis was performed. 4-12% Bis-Tris gel and MOPS running buffer was used. The running buffer was made to sufficient volume of running buffer to 1× concentration. 20 μg protein (v/v loading & reducing buffer) of each sample was loaded into wells. Some proteins may require more, or less, protein loaded. The gel was ran at standard settings 200 V for 45 minutes. Once gel has run, the gel was transferred for 7 minutes using the iBlot Blotting System. The membrane was blocked using 5% non-fat powdered milk* made up in 1×TBS containing 0.1% Tween (TBS-T and incubated for 1 hr with gentle rocking. The observation from the Western blot analysis is quantified in FIGS. 2-7D.
Cell line JEKO-1 (mantle cell line with cyclin D chromosome translocation, amplification of cyclin D) was treated with DMSO (control), 500 nM of Compound 42, or 1 μM of Palbociclib. Treated cells were incubated for 48 hours and data represented in FIGS. 6A-6C represents n=1.

HCT-116 xenograft = experiment: Subcutaneous HCT-116 xenograft model, tumor volume; format: in vivo, nude mice; details: vs control
Experimental: The efficacy of Compound 42, Compound F, and Compound Q3 were evaluated in the treatment of subcutaneous HCT-116 xenograft model in nude mice.
Cell Culture: HCT-116 tumor cell lines were maintained in vitro as a monolayer culture in DMEM medium supplemented with 10% fetal bovine serum at 37° C. in an atmosphere of 5% CO2 in air. The tumor cells were routinely subcultured twice weekly by trypsin-EDTA treatment (0.05% Trypsin-EDTA) and 1:4 split: The cells in an exponential growth phase were harvested and counted for tumor inoculation.
Tumor Inoculation: Each, mouse was inoculated subcutaneously at the flank region with HCT-1.16 cells (1.0×106) in 0.1 ml of 1×PBS mixed with Matrigel (1:1) for tumor development. The day Xenotransplantation was performed is denoted as day 0.
Thirty (30) animals with approx 100-150 mm^3 tumors were selected for HCT-116 follow up experiment and randomly placed Into Groups 1, 2, […], 4, 5, and 6 as shown in Table 8.
Group Assignment: Before grouping and treatment, all animals were weighed and fee tumor volumes were confirmed (100-150 mm^3) using electronic caliper. Since the tumor volume can affect fee effectiveness of any given treatment mice into groups using randomized block design as following: First the experimental animals were divided into homogeneous blocks based on their tumor volume. Secondly, within each block, randomization of experimental animals to different groups By using randomized block design to assign experimental animals, we ensure that each animal has the same probability of being assigned to any given treatment groups and therefore systematic error is minimized.
Treatments were initiated when turner volume reached 100-150 mm^3. Treatments started on Day 5. Test compounds were administered intraperitoneally (II′) in 10 mg/mL solution comprising 10% N,N-dimethyl acetamide, 15% macrogol 15 hydroxy stearate, polyethylene glycol-15-hydroxystearate, and 75% aqueous hydroxypropyl-beta-cyclodextrin.
Observation and data collection: After tumor cells inoculation, the animals were checked daily for morbidity and mortality. At the time of routine monitoring, the animals were checked for any adverse effects of tumor growth and treatments on normal behavior such as mobility, visual estimation of food and water consumption, body weight gain/loss, eye/hair matting and any other abnormal effects, Death and observed clinical signs were recorded, per […] IACUC. Tumor volumes were measured every 3-4 days in two dimensions using an electronic caliper, sad the volume data are expressed in, mm3 using the formula: V=0.5 a×b^2 where a and b are fee long and short diameters of the tumor, respectively. Dosing and tumor volume measurement procedures were conducted in a Laminar Flow Cabinet according to Altogen Labs IACUC regulations.
Statistics: Summary statistics, the mean and the standard error of the mean (SEM), are provided for the tumor volume of each group at each time point. Statistical analysis of difference in tumor volume among the groups and the analysis of drug interaction were conducted on the data obtained after the final dose.

MDA-MB-157 = experiment: Cell proliferation assay; format: cell-based; details: Homo sapiens, 72 hrs, read-out: Cell Viability: IC50
Experimental: Measurement of the inhibitive effect of compounds on cancer cell proliferation was performed. The assays were performed under the following conditions: Cells are harvested at a concentration of 4×10^4 cells/ml in media. Volumes of 100 μL/well of these cell suspensions were added to a 96 well plate using a multichannel pipette. Plates were gently agitated to ensure an even dispersion of cells over a given plate. Cells were then incubated at 37° C., 5% CO2 overnight. Following this, 100 μL of compound at varying concentrations was added to wells in triplicate. Control wells are those with 100 μL media containing 0.33% DMSO added to cell suspension (this is the equivalent volume of DMSO found in the highest concentration of drug). Plates were then gently agitated, as above, and incubated at 37° C., 5% CO2 for 72 hrs (control wells have reached 80-90% confluency). Assessment of cell proliferation in the presence of Compounds C and F was determined by the acid phosphatase assay.
Following the incubation period of 72 hrs, media was removed from the plates. Each well on the plate was washed twice with 100 μL PBS. This was then removed and 100 μL of freshly prepared phosphatase substrate (10 mM p-nitrophenol phosphate in 0.1M sodium acetate, 0.1% triton X-100, pH 5.5) was added to each well. The plates were then incubated in the dark at 37° C. for 2 hours. Color development was monitored during this time. The enzymatic reaction was stopped by the addition of 50 μL of 1N NaOH. The plate was read in a dual beam plate reader at 405 nm with a reference wavelength of 620 nm. The absorbance reading of the latter is subtracted from the former, and the effect of the drug on cell proliferation was then measured as a percentage against the control cells (DMSO), which is taken as 0% inhibition.

[1] = Groups 2-6 of Table 8 (Compound 42 1 and 5, Q3 5 and 15, F 25 mg/kg), IP daily for 20 days, 28 days

Row | SMILES | normalization of cyclin D (Cyclin D; HCT-116 (p16 mutation), Compound 42 250 nM, Palbociclib 1 μM) | cyclin D expression (Cyclin D; HT116, with increasing concentration) | cyclin D expression (Cyclin D; JEKO-1, 500 nM Compound 42, 48 hours, compared to palbociclib 1 μM) | cyclin D expression (Cyclin D; OAW28) | tumor growth (tumor volume) (HCT-116 xenograft; 1 mg/kg, IP, over 28 days) | tumor growth (tumor volume) (HCT-116 xenograft; 5 mg/kg, IP, over 28 days) | tumor growth (tumor volume) (HCT-116 xenograft; [1]) | IC50 (MDA-MB-157) [µM] | tumor growth (tumor volume) (HCT-116 xenograft; 10 mg/kg, over 28 days) | tumor growth (tumor volume) (HCT-116 xenograft; 25 mg/kg, IP, over 28 days)
1 | Cc1ccccc1C(=O)Nc1nc(NC(=O)c2ccccc2C)n(-c2ccc(OC(F)(F)F)cc2)n1 [Compound 42, N,N′-(1-(4-(trifluoromethoxy)phenyl)-1H-1,2,4-triazole-3,5-diyl)bis(2-methylbenzamide)] | normalized cyclic D | reduction | reduction of cyclin E and cyclin D expression | decreased | reduce tumor growth | reduce tumor growth | reduce the tumor growth |  |  | 
2 | Cc1ccccc1C(=O)Nc1nc(NC(=O)c2ccccc2C)n(-c2ccccc2)n1 [Compound F, 2-methyl-N-[5-[(2-methylbenzoyl)amino]-1-phenyl-1,2,4-triazol-3-yl]benzamide] |  |  |  |  |  |  | reduce the tumor growth | 5.82 | substantially reduce tumor growth | most substantially reduced; also recorded: substantially reduce tumor growth
